System: human intestinal Caco-2 cells
Experiment: Caco-2 permeability assay
Format: in vitro ADME
Method: Section 4: DMPK Methods and Further Discussion […]
Caco-2 Permeability studies: The permeability assay for SSA 1-6 and 10 was performed at Cyprotex Discovery Limited (Macclesfield, UK) and analysed at Cancer Research Horizons. SSA 1-6 and 10 were incubated at a final concentration of 10 uM with human intestinal Caco-2 cells at 37°C, 5% CO2 with a relative humidity of 95%. After 120 minutes the apical compartment inserts and the companion plates were separated, and the apical and basolateral samples were transferred. Incubations were conducted in duplicate and the fluorescent membrane integrity marker; Lucifer Yellow was co-incubated with the SSA compounds at the start of the assay. Compounds of known permeability were used as controls and were within acceptance criteria. Further processing is described in:
Sample preparation and liquid chromatography-mass spectrometry analysis.
Sample preparation and liquid chromatography-mass spectrometry analysis: All samples were centrifuged at 3500 rpm at 4°C for 10 min to precipitate protein and enable sampling of supernatant prior to appropriate dilution for liquid chromatography-mass spectrometry (LC-MS/MS analysis). […]
(1.5 µm, 50 x 2.1 mm) at a temperature of 40°C and a binary mobile phase gradient at a flow rate of […]
0.4 mL/min. […]
For the purpose of apparent permeability determination, samples were analysed using a Waters I-Class ultra-high-performance liquid chromatography (UHPLC) system coupled to a Waters Vion mass spectrometer (Waters, Elstree, UK). Separation of analytes was achieved used an Accucore Vanquish C18+ column (1.5 µm, 50 x 2.1 mm) at a temperature of 40°C and a binary mobile phase gradient at a flow rate of 0.4 mL/min. Initial LC conditions for SSA 1-4 comprised 66% solvent A (0.1% formic acid + 5 mM ammonium acetate in water), 33% solvent B (0.1% formic acid + 5 mM ammonium acetate in methanol); this was ramped to 63% B at 1.8 min and 95% B at 1.9 min, held for 0.5 min and then immediately returned to initial conditions and held for the remaining 0.5 min of the method. Initial LC conditions for SSA 5-10 comprised 54% solvent A (0.1% formic acid + 5 mM ammonium acetate in water), 46% solvent B (0.1% formic acid + 5 mM ammonium acetate in methanol); this was ramped to 67% B at 1.8 min and 95% B at 1.9 min, held for 0.5 min and then immediately returned to initial conditions and held for the remaining 0.5 min of the method.
Sample analysis was by electrospray ionisation in negative ion mode. The capillary voltage was 2.5 kV, desolvation gas was 600°C.
For the purpose of PK determination of SSA 5, samples were analysed using a Waters I-Class ultra-high-performance liquid chromatography (UHPLC) system coupled to a Waters Xevo TQ-XS mass spectrometer. Separation of analytes was achieved using an Accucore Vanquish C18+ column (1.5 µm, 50 x 2.1 mm) at a temperature of 40°C and a binary mobile phase gradient at a flow rate of 0.4 mL/min. Initial LC conditions comprised 54% solvent A (0.1% formic acid + 5 mM ammonium acetate in water), 46% solvent B (0.1% formic acid + 5 mM ammonium acetate in methanol); this was ramped to 67% B at 1.8 min and 95% B at 1.9 min, held for 0.5 min and then immediately returned to initial conditions and held for the remaining 0.5 min of the method. Sample analysis was by electrospray ionisation combined with multiple reaction monitoring in negative ion mode. The […]
Mean blood concentration-time profile: Within these studies SSAs 3 and 5 were dosed at 1 mg/kg, to female CD-1 mice (n=9 per SSA) via an intravenous tail vein bolus dose formulation as solutions in 2 % DMSO/98 % water. Blood taken from the mouse tail vein was extracted by protein precipitation.
SSA concentrations were calculated through UPLC-MS/MS techniques, with tolbutamide as the internal standard. The assay met the acceptance criteria with >7 calibration standards within ± 20% of nominal concentration. The lower limit of quantitation was 2 ng/mL for both compounds. PK […]

[1] = % SSA recovered from the assay after 2 hours

## O=C(NCS(=O)(=O)O)Nc1ccc(C(F)(F)F)cc1 [SSA 3]
[1]
  Recovery (A-B): 99%
  Recovery (B-A): 98%
Caco-2, 10 uM, 120 minutes, n = 2 technical repeats
  Papp (B-A): 5.6 ×10⁻⁶ cm/s
Caco-2, in words
  Papp (B-A) class: moderate
